Reference: patent publication US12365655B2, “Compounds” (CTXT PTY LTD, priority 2018, dated 2025)
Where a name gives a salt, the structure may show the parent alone.

Key:
[1] = biological target: TIP60-KAT5 (Homo sapiens, UniProt Q92993); assay: Acetyltransferase biochemical assay (AlphaScreen), KAT5
[2] = biological target: HBO-KAT7 (Homo sapiens, UniProt O95251); assay: Acetyltransferase biochemical assay (AlphaScreen), KAT7
[3] = biological target: MOZ-KAT6A (Homo sapiens, UniProt Q92794, A567V); assay: Acetyltransferase biochemical assay (AlphaScreen), KAT6A
Chain of MOZ-KAT6A (Q92794 with tags, fused parts or gaps A567V): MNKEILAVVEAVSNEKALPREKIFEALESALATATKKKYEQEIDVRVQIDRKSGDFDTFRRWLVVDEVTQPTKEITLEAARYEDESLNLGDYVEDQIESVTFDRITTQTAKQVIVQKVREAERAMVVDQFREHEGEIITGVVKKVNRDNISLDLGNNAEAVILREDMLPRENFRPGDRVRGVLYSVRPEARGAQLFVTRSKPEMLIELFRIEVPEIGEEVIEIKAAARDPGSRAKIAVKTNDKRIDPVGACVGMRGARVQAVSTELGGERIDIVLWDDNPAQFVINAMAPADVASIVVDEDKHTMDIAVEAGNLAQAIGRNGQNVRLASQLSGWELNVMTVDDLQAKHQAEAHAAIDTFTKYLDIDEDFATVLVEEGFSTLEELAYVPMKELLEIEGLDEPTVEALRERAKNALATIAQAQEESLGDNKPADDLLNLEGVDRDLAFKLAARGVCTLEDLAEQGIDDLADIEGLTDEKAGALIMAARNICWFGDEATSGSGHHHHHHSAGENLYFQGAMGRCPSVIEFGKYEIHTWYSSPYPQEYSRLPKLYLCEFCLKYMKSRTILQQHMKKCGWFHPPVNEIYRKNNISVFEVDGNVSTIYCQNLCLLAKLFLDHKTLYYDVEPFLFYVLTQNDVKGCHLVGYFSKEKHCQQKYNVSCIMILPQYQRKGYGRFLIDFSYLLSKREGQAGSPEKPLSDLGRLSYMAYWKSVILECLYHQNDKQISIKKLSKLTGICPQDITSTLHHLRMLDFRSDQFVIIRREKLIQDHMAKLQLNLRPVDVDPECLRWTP

Chain of HBO-KAT7 (O95251 with tags, fused parts or gaps): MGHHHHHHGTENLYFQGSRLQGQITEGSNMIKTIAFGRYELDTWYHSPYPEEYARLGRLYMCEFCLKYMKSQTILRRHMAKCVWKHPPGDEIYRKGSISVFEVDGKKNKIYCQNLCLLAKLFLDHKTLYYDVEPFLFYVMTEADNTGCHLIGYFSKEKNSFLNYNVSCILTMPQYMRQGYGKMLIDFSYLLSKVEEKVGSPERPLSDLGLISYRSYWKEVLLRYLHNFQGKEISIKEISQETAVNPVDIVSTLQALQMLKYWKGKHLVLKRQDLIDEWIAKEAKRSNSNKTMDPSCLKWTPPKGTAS
Chain of TIP60-KAT5 (Q92993 with tags, fused parts or gaps isoform Q92993-2): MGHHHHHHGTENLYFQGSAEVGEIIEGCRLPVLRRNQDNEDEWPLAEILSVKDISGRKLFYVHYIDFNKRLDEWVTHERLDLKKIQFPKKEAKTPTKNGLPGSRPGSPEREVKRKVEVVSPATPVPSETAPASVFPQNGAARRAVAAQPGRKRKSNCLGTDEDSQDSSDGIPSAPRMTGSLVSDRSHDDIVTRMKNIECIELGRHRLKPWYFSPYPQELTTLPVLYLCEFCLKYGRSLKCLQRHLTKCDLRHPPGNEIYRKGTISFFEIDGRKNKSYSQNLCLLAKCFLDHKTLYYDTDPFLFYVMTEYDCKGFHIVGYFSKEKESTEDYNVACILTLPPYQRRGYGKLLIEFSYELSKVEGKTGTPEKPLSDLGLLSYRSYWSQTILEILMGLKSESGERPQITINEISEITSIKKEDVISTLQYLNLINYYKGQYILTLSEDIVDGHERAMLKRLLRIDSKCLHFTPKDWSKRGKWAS

CCc1ccc(OC)c(S(=O)(=O)Nc2noc3cccc(C)c23)c1 [Example 198, 5-Ethyl-2-methoxy-N-(4-methylbenzo[d]isoxazol-3-yl)benzenesulfonamide]
IC50 [1]: 73.7 µM | IC50 [2]: 6.95 µM | IC50 [3]: 2.82 µM

COc1ccc2cccnc2c1S(=O)(=O)Nc1noc2cccc(OC)c12 [Example 98, 7-Methoxy-N-(4-methoxybenzo[d]isoxazol-3-yl)quinoline-8-sulfonamide]
IC50 [1]: 31.3 µM | IC50 [2]: 3.41 µM | IC50 [3]: 5.6 µM

O=S(=O)(Nc1noc2ccccc12)c1ccc(Cl)c(Cl)c1 [Example 61, N-(benzo[d]isoxazol-3-yl)-3,4-dichlorobenzene-sulfonamide]
IC50 [1]: 85.4 µM | IC50 [2]: > 125 µM | IC50 [3]: 51.9 µM

O=S(=O)(Nc1noc2cccc(Cl)c12)c1cccc2c1OCC2 [Example 180, N-(4-Chlorobenzo[d]isoxazol-3-yl)-2,3-dihydrobenzofuran-7-sulfonamide]
IC50 [1]: 25.5 µM | IC50 [2]: 1.76 µM | IC50 [3]: 9.44 µM

COc1cc(-c2ccccc2)ccc1S(=O)(=O)Nc1noc2ccccc12 [Example 183, N-(Benzo[d]isoxazol-3-yl)-3-methoxy-[1,1-biphenyl]-4-sulfonamide]
IC50 [1]: 33.2 µM | IC50 [2]: 4.48 µM | IC50 [3]: 5.6 µM

CCc1ccc(OC)c(S(=O)(=O)Nc2noc3ccc(Br)c(OC)c23)c1 [Example 108, N-(5-bromo-4-methoxybenzo[d]isoxazol-3-yl)-5-ethyl-2-methoxy benzenesulfonamide]
IC50 [1]: 41.9 µM | IC50 [2]: 2.04 µM | IC50 [3]: 3.09 µM

CCc1ccc(OC)c(S(=O)(=O)Nc2noc3cc(-c4ccccc4)ccc23)c1 [Example 179, 5-Ethyl-2-methoxy-N-(6-phenylbenzo[d]isoxazol-3-yl)benzenesulfonamide]
IC50 [1]: 32.1 µM | IC50 [2]: 13.5 µM | IC50 [3]: 2.86 µM

CC(C)c1ccc(S(=O)(=O)Nc2noc3cccc(Cl)c23)cc1 [Example 22, N-(4-chlorobenzo [d]isoxazol-3-yl)-4-isopropylbenzene sulfonamide]
IC50 [1]: 38.9 µM | IC50 [2]: 6.3 µM | IC50 [3]: 5.21 µM

CCc1ccc(OC)c(S(=O)(=O)Nc2noc3ccc(CN)cc23)c1 [Example 226]
IC50 [1]: 80.3 µM | IC50 [2]: 38 µM | IC50 [3]: 10.8 µM

CCc1ccc(OC)c(S(=O)(=O)Nc2noc3cc(OCC4CC4)ccc23)c1 [Example 134]
IC50 [1]: 51.5 µM | IC50 [2]: 27.6 µM | IC50 [3]: 6.45 µM

COCc1cccc(S(=O)(=O)Nc2noc3cccc(Cl)c23)c1 [Example 2, N-(4-chlorobenzo [d]isoxazol-3-yl)-3-(methoxymethyl) benzenesulfonamide]
IC50 [1]: > 125 µM | IC50 [2]: 15.5 µM | IC50 [3]: 94.6 µM

COC(=O)c1ccc(OC)c(S(=O)(=O)Nc2noc3ccccc23)c1 [Example 50, methyl 3-(N-(benzo[d]isoxazol-3-yl)sulfamoyl)-4-methoxy benzoate]
IC50 [1]: > 125 µM | IC50 [2]: > 125 µM | IC50 [3]: 123 µM

COc1ccc(-c2ccno2)cc1S(=O)(=O)Nc1noc2ccccc12 [Example 55, N-(benzo[d]isoxazol-3-yl)-5-(isoxazol-5-yl)-2-methoxybenzene sulfonamide]
IC50 [1]: > 125 µM | IC50 [2]: > 125 µM | IC50 [3]: 103 µM

CCc1ccc(OC)c(S(=O)(=O)Nc2noc3ccc(CC)cc23)c1 [Example 235]
IC50 [1]: 9.04 µM | IC50 [2]: 0.82 µM | IC50 [3]: 0.395 µM

Cc1cnc2c(S(=O)(=O)Nc3noc4cccc(Cl)c34)cccc2c1 [Example 118, N-(4-Chlorobenzo[d]isoxazol-3-yl)-3-methylquinoline-8-sulfonamide]
IC50 [1]: 37.1 µM | IC50 [2]: 0.852 µM | IC50 [3]: 10 µM

O=S(=O)(Nc1noc2cccc(Cl)c12)c1ccc2c(c1)CCC2 [Example 44, N-(4-chlorobenzo [d]isoxazol-3-yl)-2,3-dihydro-1H-indene-5-sulfonamide]
IC50 [1]: 60.2 µM | IC50 [2]: 10.8 µM | IC50 [3]: 10.6 µM

CCc1ccc(OC)c(S(=O)(=O)Nc2noc3c(CO)cccc23)c1 [Example 186]
IC50 [1]: 84.7 µM | IC50 [2]: 47.1 µM | IC50 [3]: 25.2 µM

CCc1ccc(OC)c(S(=O)(=O)Nc2noc3c(C)cccc23)c1 [Example 187, 5-Ethyl-2-methoxy-N-(7-methylbenzo[d]isoxazol-3-yl)benzenesulfonamide]
IC50 [1]: 65.3 µM | IC50 [2]: 22 µM | IC50 [3]: 5.66 µM

COc1ccc(C(C)(C)C)cc1S(=O)(=O)Nc1noc2ccccc12 [Example 48, N-(benzo[d]isoxazol-3-yl)-5-(tert-butyl)-2-methoxy benzene sulfonamide]
IC50 [1]: 92.9 µM | IC50 [2]: 54.8 µM | IC50 [3]: 7.41 µM

COc1ccc(C(C)(C)C)cc1S(=O)(=O)Nc1noc2cccc(Cl)c12 [Example 40, 5-(tert-butyl)-N-(4-chlorobenzo[d]isoxazol-3-yl)-2-methoxy benzenesulfonamide]
IC50 [1]: 121 µM | IC50 [2]: 19.9 µM | IC50 [3]: 2.13 µM

CCc1ccc(OC)c(S(=O)(=O)Nc2noc3ccc(C4CC4)c(OC)c23)c1 [Example 208]
IC50 [1]: 28.5 µM | IC50 [2]: 4.65 µM | IC50 [3]: 1.63 µM

CCc1ccc(OC)c(S(=O)(=O)Nc2noc3ccccc23)c1 [Example 63, N-(benzo[d]isoxazol-3-yl)-5-ethyl-2-methoxy benzene-sulfonamide]
IC50 [1]: > 125 µM | IC50 [2]: 60.1 µM | IC50 [3]: 2.56 µM

COc1cc(Br)ccc1S(=O)(=O)Nc1noc2ccccc12 [Example 141]
IC50 [1]: > 125 µM | IC50 [2]: 24.3 µM | IC50 [3]: 39.6 µM

CCc1cccc(S(=O)(=O)Nc2noc3ccccc23)c1 [Example 52, N-(benzo[d]isoxazol-3-yl)-3-ethylbenzene sulfonamide]
IC50 [1]: > 125 µM | IC50 [2]: > 125 µM | IC50 [3]: 85.3 µM

COc1ccc(-n2cccn2)cc1S(=O)(=O)Nc1noc2ccccc12 [Example 54, N-(benzo[d]isoxazol-3-yl)-2-methoxy-5-(1H-pyrazol-1-yl)benzene sulfonamide]
IC50 [1]: > 125 µM | IC50 [2]: > 125 µM | IC50 [3]: 63 µM

COc1ccc(S(=O)(=O)Nc2noc3cc(C#N)c(C)cc23)c(OC)c1 [Example 169]
IC50 [1]: 63.2 µM | IC50 [2]: 8.65 µM | IC50 [3]: 24.8 µM

COc1cccc(OC)c1S(=O)(=O)Nc1noc2c(Br)cc(C)cc12 [Example 239]
IC50 [1]: 17.4 µM | IC50 [2]: 3 µM | IC50 [3]: 2.13 µM

COc1ccc(S(=O)(=O)Nc2noc3cccc(OC)c23)c(OC)c1 [Example 76, 2,4-dimethoxy-N-(4-methoxybenzo [d]isoxazol-3-yl)benzene sulfonamide]
IC50 [1]: 2.58 µM | IC50 [2]: 0.937 µM | IC50 [3]: 0.688 µM

CCc1ccc(OC)c(S(=O)(=O)Nc2noc3ccc(C(N)=O)cc23)c1 [Example 232, 3-((5-Ethyl-2-methoxyphenyl)sulfonamido)benzo[d]isoxazole-5-carboxamide]
IC50 [1]: > 125 µM | IC50 [2]: > 125 µM | IC50 [3]: 46.5 µM

CCc1ccc(OC)c(S(=O)(=O)Nc2noc3cc(-n4ccnn4)ccc23)c1 [Example 125]
IC50 [1]: > 125 µM | IC50 [2]: 85.8 µM | IC50 [3]: 24.5 µM

COc1cc(-c2cc(OC)c3c(NS(=O)(=O)c4c(OC)cccc4OC)noc3c2)ccn1 [Example 249, 2,6-Dimethoxy-N-(4-methoxy-6-(2-methoxypyridin-4-yl)benzo[d]isoxazol-3-yl)benzenesulfonamide]
IC50 [1]: 69.2 µM | IC50 [2]: 0.889 µM | IC50 [3]: 1.27 µM

COc1c(S(=O)(=O)Nc2noc3cccc(Cl)c23)ccc(Cl)c1Cl [Example 3, 3,4-dichloro-N-(4-chlorobenzo[d]isoxazol-3-yl)-2-methoxy benzenesulfonamide]
IC50 [1]: 65.1 µM | IC50 [2]: 23.2 µM | IC50 [3]: 23.8 µM

O=S(=O)(Nc1noc2ccccc12)c1ccc2c(c1)CCC2 [Example 64, N-(benzo[d]isoxazol-3-yl)-2,3-dihydro-1H-indene-5-sulfonamide]
IC50 [1]: > 125 µM | IC50 [2]: 106 µM | IC50 [3]: 26.7 µM

COc1ccccc1S(=O)(=O)Nc1noc2ccccc12 [Example 58, N-(benzo[d]isoxazol-3-yl)-2-methoxybenzene sulfonamide]
IC50 [1]: > 125 µM | IC50 [2]: 16.6 µM | IC50 [3]: 28.4 µM

CCc1ccc(OC)c(S(=O)(=O)Nc2noc3cc(CC)ccc23)c1 [Example 194]
IC50 [1]: 37.8 µM | IC50 [2]: 6.87 µM | IC50 [3]: 1.51 µM

Cc1ccc(S(=O)(=O)Nc2noc3cccc(Cl)c23)cc1 [Example 27, N-(4-chlorobenzo [d]isoxazol-3-yl)-4-methylbenzenesulfonamide]
IC50 [1]: > 125 µM | IC50 [2]: 32.1 µM | IC50 [3]: 71.5 µM

COc1cc(CO)cc(OC)c1S(=O)(=O)Nc1noc2cccc(OC)c12 [Example 209, 4-(Hydroxymethyl)-2,6-dimethoxy-N-(4-methoxybenzo[d]isoxazol-3-yl)benzenesulfonamide]
IC50 [1]: 28.7 µM | IC50 [2]: 1.05 µM | IC50 [3]: 2.03 µM

CCc1ccc(OC)c(S(=O)(=O)Nc2noc3ccc(CC)c(Cl)c23)c1 [Example 206]
IC50 [1]: 6.36 µM | IC50 [2]: 0.626 µM | IC50 [3]: 0.302 µM

COc1cc(CN)cc(OC)c1S(=O)(=O)Nc1noc2cccc(OC)c12 [Example 210, 4-(Aminomethyl)-2,6-dimethoxy-N-(4-methoxybenzo[d]isoxazol-3-yl)benzenesulfonamide hydrochloride]
IC50 [1]: > 125 µM | IC50 [2]: 6.54 µM | IC50 [3]: 8.53 µM

COc1ccc(OC)c(S(=O)(=O)Nc2noc3ccccc23)c1 [Example 46, N-(benzo[d]isoxazol-3-yl)-2,5-dimethoxybenzene-sulfonamide]
IC50 [1]: > 125 µM | IC50 [2]: 74.4 µM | IC50 [3]: 36.2 µM

O=S(=O)(Nc1noc2cccc(Cl)c12)c1ccc2c(c1)CCCC2 [Example 42, N-(4-chlorobenzo [d]isoxazol-3-yl)-5,6,7,8-tetrahydronaphthalene-2-sulfonamide]
IC50 [1]: 11.6 µM | IC50 [2]: 8.38 µM | IC50 [3]: 5.95 µM

CCc1ccc(S(=O)(=O)Nc2noc3ccccc23)c(OC)c1 [Example 182]
IC50 [1]: 65.6 µM | IC50 [2]: 15.6 µM | IC50 [3]: 15.2 µM
